The nature of the test: Cytotoxicity against mouse EAC cells. In kind it is functional, cell-based. The conditions noted are these: Ehrlich.

Values after ≈ are worked out from the molar mass of the structure shown.

Broadly, the IC50 is the concentration at which inhibition is half-maximal. A higher IC50 goes with weaker potency. Turning to `CN(C=O)CCc1c[nH]c2c1C(=O)c1c(-c3ccc(O)cc3)c[nH]c1C2=O` [ZYZZYANONE D], the IC50 turned out to be 25 µg/mL (≈ 68.8 µM).
For `CNCCc1c[nH]c2c1C(=O)c1c(-c3ccc(O)cc3)c[nH]c1C2=O` [ZYZZYANONE B] the value was 25 µg/mL (≈ 74.5 µM); for `CN(C=O)CCc1cn(C)c2c1C(=O)c1c(-c3ccc(O)cc3)c[nH]c1C2=O` [ZYZZYANONE C], 25 µg/mL (≈ 66.2 µM).
